Test results published in PMC7570921, “Cathepsin B-Cleavable Cyclopeptidic Chemotherapeutic Prodrugs” (Molecules, 2020).
pIC50: −log10 of the molar value. Starred links: 1 amine or outer side, 2 acyl side, 3 side chain; linkers in the order of their positions; H or OH if unused. Residues, ends and D or L forms follow the SMILES beside them. *: point of attachment. Doxorubicin(3'-N) = COc1cccc2c1C(=O)c1c(O)c3c(c(O)c1C2=O)C[C@@](O)(C(=O)CO)C[C@@H]3O[C@H]1C[C@H](N*)[C@H](O)[C@H](C)O1; DBCO = C1#Cc2ccccc2N(*)Cc2ccccc21; Suc = O=C(CCC(=O)[*:2])[*:1]

Columns and labels:
[1] = system: HT1080 human fibrosarcoma cells; assay: WST-1 cell proliferation / cytotoxicity assay; assay type: cell-based; conditions: for Cytotoxicity (in words) / Survival Rate (SR): HT1080, 72 h; for Cytotoxicity (in words): WST-1, 5-50 μM DOX eq (Figure S14), n = 3
Experimental: Human fibrosarcoma cell line HT1080 (ATCC® CCL-121™, Manassas, VA, USA) was grown as monolayers in DMEM (1x) + GlutaMAX™-1 medium supplemented with 10% fetal calf serum and […] streptomycin and 100 IU/mL penicillin. Cells were cultivated at 37 °C in humidified 95% air and 5% CO2 atmosphere and routinely maintained by serial passage in a new medium. Prior to experiments, cells were tested for mycoplasma contamination with the MycoAlert™ kit.
Cells were seeded at a density of 8000 cells/well in a 96-well plate (clear-bottom black plate, 3603, Corning, Luzern, Switzerland) one day prior to the experiment. […] Cell proliferation assays were performed at 72 h upon incubation using a Cell Proliferation reagent (WST-1) following the manufacturer’s recommendations. The absorption was measured at 450 nm with a plate reader (Safire). The percentage of cell survival was calculated with respect to control samples treated with either medium or a solution of DMSO (50%) in serum-free medium, as follows: [A (test-conc.) − A (100% dead)/A (100% viable) − A (100% dead)] × 100. Mean values from three wells were determined and expressed as ± S.D. All assays were done in triplicates.

HT1080 cells [2] = assay: Cell cycle analysis by flow cytometry (Hoechst 33342, Dean-Jett-Fox model); assay type: cell-based, human
Experimental: (§1) HT1080 cells were seeded in 6-well plates (flat-bottom cell culture microplate, 3505, Corning, Luzern, Switzerland) at a density of 150,000 cells/well and were left to attach overnight. […] Cells were incubated for 24, 48 and 72 h in the dark at 37 °C. Cells were washed 3 times with DPBS, detached from the surface with a cell-scraper and resuspended in 500 μL of DPBS. Cells were analyzed immediately on a BD LSR Fortessa cell analyzer (BD Biosciences, San Jose, CA, USA). […] For this purpose, 1 mM Tris buffer was prepared and the pH was adapted to 7.6 with 30% HCl. Igepal CA-630 and Hoechst 3342 (5 μg/mL final concentration) were added, and the reagent was filtered. […] Samples were incubated at 4 °C for 1 h and analyzed with a BDLSR Fortessa cell analyzer. Acquisition data were analyzed using FlowJo V10 software (FLOWJO, LCC, Ashland, OR, USA). For cell cycle analysis, the Dean-Jett-Fox model was used. All measurements were done in triplicates. Mean values and S.D. were calculated and plotted for each tested compound.

HT1080 cells [3] = assay: Confocal fluorescence microscopy, co-localization (PCC) of DOX fluorescence; assay type: cell-based, human; conditions: 24 h incubation, 0.3 μM free DOX; mean ± SD of three images
Experimental: HT1080 cells were seeded one day before the experiment at a density of 78,500 cells in 1.3 mL of complete medium into a glass-bottom microwell dish (35 mm petri dish, 14 mm microwell, MatTek Corporation). […] Control cells were incubated in serum-free medium under the same experimental conditions. Cells were then washed with DPBS and incubated for 20 min with 1 μg/mL Hoechst 33,342 stain and 70 nM of LysoTracker® Green DND-26. Prior to imaging, cells were washed with DPBS and serum-free medium was put into every dish. Fluorescence imaging was carried our using a Zeiss LSM780 (Zeiss, Jena, Germany) inverted confocal microscope. The microscopic images were using 405 and 488 nm lasers as excitation wavelengths, 495–525, 575–625 and 415–492 nm emission filters, and an objective lens, Plan-Aprochromat 63 x/1.4 oil DIC M27. During the image acquisition time, slides were kept at 37 °C in a humidified chamber (INUBTF-WSKM-F1, Tokai Hit, Japan). ZEN 2 software (Zeiss, Jena, Germany) was used for image processing. […] […] PCC was calculated in regions of interest (ROI), separately defined for each image by masking the entire dataset with the red channel (DOX fluorescence). The value of PCC for each experiment is presented as mean ± S.D. calculated from three separate images.

HT1080 cells [4] = assay: Flow cytometry of intracellular and nuclear DOX accumulation; assay type: cell-based, human; conditions: 24 h, 0.3 μM (DOX eq), isolated nuclei, triplicates
Experimental: as §1, with “compound. Fluorescence of control cells incubated in serum-free medium was subtracted from acquired DOX-emitted fluorescence.” for “compound.”

[5] = 24 h, 0.3 μM (DOX eq), mean ± S.D., n = 3
[6] = 48 hours, equimolar concentration (DOX eq)
[7] = 72 hours, equimolar concentration (DOX eq)

COc1cccc2c1C(=O)c1c(O)c3c(c(O)c1C2=O)C[C@@](O)(C(=O)CO)C[C@@H]3O[C@H]1C[C@H](NC(=O)CNC(=O)[C@H](C)NC(=O)[C@H](C)NC(=O)[C@H](CCCNC(=N)N)NC(=O)[C@H](CCCNC(=N)N)NC(=O)CNC(=O)[C@H](C)NC(=O)CNC(=O)CCC(=O)N2Cc3ccccc3C#Cc3ccccc32)[C@H](O)[C@H](C)O1 ({DBCO-Suc}-GAGRRAAG-{Doxorubicin(3'-N)})
Cytotoxicity (in words) [1]: significant cytotoxicity

COc1cccc2c1C(=O)c1c(O)c3c(c(O)c1C2=O)C[C@@](O)(C(=O)CO)C[C@@H]3O[C@H]1C[C@H](N)[C@H](O)[C@H](C)O1.Cl [DOX, Doxorubicin hydrochloride salt]
% G1 (HT1080 cells [2]; [5]): 30.4 ± 2.3% | % S (HT1080 cells [2]; [5]): 36.7 ± 11.9% | % G1 (HT1080 cells [2]; [6]): 29.2 ± 1.5% | % G2 (HT1080 cells [2]; [6]): 33.6 ± 5.7% | % S (HT1080 cells [2]; [6]): 32.3 ± 4.4% | % G1 (HT1080 cells [2]; [7]): 32.6 ± 3.2% | % G2 (HT1080 cells [2]; [7]): 27.3 ± 8.1% | % S (HT1080 cells [2]; [7]): 35.8 ± 6.7% | PCC between DOX and Hoechst 33342 (HT1080 cells [3]): 0.41 ± 0.10 | Survival Rate (SR) ([1]; WST-1, [Dox] 0.01 mM as printed, SD 9.7 wrapped): 86.4% | Survival Rate (SR) ([1]; WST-1, [Dox] 0.05 mM as printed, SD 10.6 wrapped): 81.7% | Survival Rate (SR) ([1]; WST-1, [Dox] 0.10 mM as printed, SD 9.7 wrapped): 69.9% | Survival Rate (SR) ([1]; WST-1, [Dox] 0.15 mM as printed, SD 7.3 wrapped): 53.7% | Survival Rate (SR) ([1]; WST-1, [Dox] 0.2 mM as printed, SD 4.7 wrapped): 34.6% | Survival Rate (SR) ([1]; WST-1, [Dox] 0.4 mM as printed, SD 1.3 wrapped): 6.9% | Survival Rate (SR) ([1]; WST-1, [Dox] 0.5 mM as printed, SD 0.4 wrapped): 1.3% | Survival Rate (SR) ([1]; WST-1, [Dox] 0.6 mM as printed, SD 0.5 wrapped): 0.4% | Survival Rate (SR) ([1]; WST-1, [Dox] 0.8 mM as printed, SD 0.7 wrapped): 0% | Survival Rate (SR) ([1]; WST-1, [Dox] 1.0 mM as printed, SD 0.5 wrapped): 0.4% | pIC50 ([1]; HT1080, 72 h incubation, WST-1, free DOX (data not shown)): 6.80 | DOX accumulation in the nucleus (HT1080 cells [4]): significant DOX accumulation in the nucleus

PEG10-GAGRRAAG-DOX
Cytotoxicity (in words) [1]: no cytotoxicity
